In the supplement of paper PMC11208160:

Assay: recombinant barcode read abundance after kanamycin selection (control-corrected) (log10(CPM+1)); higher = more efficient recombination; sequences stand for … in AGTGCAGAGAAAATCGGCCAGTTTTCTCTGCCTGCAGTCCGCATGCCGT…AGATTTATGCAGCGGACTGCCTTTCTCCCAAAGTGATAAACCGGACAGTATCATGGACCGGTTTTCCCGGTAATCCGTATTTGCAAGGTTGGTTTCACT; site = the 11-nt target
How it was run: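 Oligos holding a promoter, target, barcode and the J23119-driven first 104 bases of the bridge RNA were Gibson-cloned into a vector that supplied the other 73 bp plus a T7-inducible recombinase. This library was co-electroporated with a donor plasmid into E. coli. Two replicates went on chloramphenicol/ampicillin LB agar (control) and two on chloramphenicol/ampicillin/kanamycin with 0.1 mM IPTG. Recombination efficiency is read from averaged, control-corrected barcode counts per million at recombinant junctions, reported as log10(CPM+1).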
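Note: IS621 recombinase and bridge RNA in Escherichia coli cells.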

First: AGGGAATCTTGGGTTCTAACCTGTTGCCT (site AGGGAATCTAG)
Second: AGGGAATCTTGGGTTCTAACCTGTTGCCT (site AGTGAATCTAG)
The “recombinant barcode read abundance (log10)” value of the first is higher: 1.04 for the first, 0.182 for the second.

First: AGGGATACTTGGGTTCTAACCTGTTGCGT (site AGGGATACTAC)
Second: AGGGATACTTGGGTTCTAACCTGTTGCGT (site ATGGATACTAC)
The “recombinant barcode read abundance (log10)” value of the first is higher: 3.32 for the first, 1.58 for the second.

First: AGGGATACTTGGGTTCTAACCTGTTGCTT (site AGGGAGACTAA)
Second: AGGGATACTTGGGTTCTAACCTGTTGCTT (site AGGGATACTAA)
The “recombinant barcode read abundance (log10)” value of the first is lower: 0.303 for the first, 1.42 for the second.

“AGGGCATCTTGGGTTCTAACCTGTTGCCT (site AGGGCATCTAG)” and “AGGGCATCTTGGGTTCTAACCTGTTGCCT (site AGGGCGTCTCG)” are within 0.2 log units of each other in “recombinant barcode read abundance (log10)” value: 0.122 for the first, 0.245 for the second.

Going from “AGGGTCGCTTGGGTTCTAACCTGTTGCCT (site AGGGTCGCTAG)” to “AGGGTCGCTTGGGTTCTAACCTGTTGCCT (site CACAGTCCTTA)”, the “recombinant barcode read abundance (log10)” value falls from 2.5 to 0.344.

Going from “AGGGTGCCTTGGGTTCTAACCTGTTGCTA (site AGGGTGCCTTA)” to “AGGGTGCCTTGGGTTCTAACCTGTTGCTA (site AGGGTGTCTCA)”, the “recombinant barcode read abundance (log10)” value falls from 2.11 to 0.106.

Going from “AGGGTTCCTTGGGTTCTAACCTGTTGCTT (site AGGGTTCCTAA)” to “AGGGTTCCTTGGGTTCTAACCTGTTGCTT (site TCATGGGCTCT)”, the “recombinant barcode read abundance (log10)” value falls from 2.05 to 0.0235.

Compared with “AGGTAGACTTGGGTTCTAACCTGTTGCCA (site AGGAAGACTTG)”, “AGGTAGACTTGGGTTCTAACCTGTTGCCA (site AGGCAGACTTG)” is higher in “recombinant barcode read abundance (log10)” value: 0.0263 for the first, 0.583 for the second.

First: AGGTAGACTTGGGTTCTAACCTGTTGCCA (site AGGGAGACTTG)
Second: AGGTAGACTTGGGTTCTAACCTGTTGCCA (site AGGTAGACTTG)
The “recombinant barcode read abundance (log10)” value of the first is lower: 0.179 for the first, 1.5 for the second.

Going from “AGGTCACCTTGGGTTCTAACCTGTTGCGT (site AGGTCACCTAA)” to “AGGTCACCTTGGGTTCTAACCTGTTGCGT (site AGGTCACCTAC)”, the “recombinant barcode read abundance (log10)” value rises from 0.276 to 2.82.

Compared with “AGGTCACCTTGGGTTCTAACCTGTTGCGT (site AGGTCACCTAG)”, “AGGTCACCTTGGGTTCTAACCTGTTGCGT (site AGGTCACCTAT)” is higher in “recombinant barcode read abundance (log10)” value: 0.536 for the first, 1.08 for the second.

Compared with “AGGTCACCTTGGGTTCTAACCTGTTGCTT (site AGGTCACCTAA)”, “AGGTCACCTTGGGTTCTAACCTGTTGCTT (site AGGTCACCTAC)” is lower in “recombinant barcode read abundance (log10)” value: 0.941 for the first, 0.0772 for the second.

First: AGGTCACCTTGGGTTCTAACCTGTTGCTT (site AGGTCACCTAG)
Second: AGGTCACCTTGGGTTCTAACCTGTTGCTT (site AGGTCACCTAT)
The “recombinant barcode read abundance (log10)” value of the first is lower: 0.914 for the first, 1.24 for the second.

Going from “AGGTCCTCTTGGGTTCTAACCTGTTGCGT (site AGGTCCTCTAA)” to “AGGTCCTCTTGGGTTCTAACCTGTTGCGT (site AGGTCCTCTAC)”, the “recombinant barcode read abundance (log10)” value rises from 0.295 to 2.67.

Going from “AGGTCCTCTTGGGTTCTAACCTGTTGCGT (site AGGTCCTCTAG)” to “AGGTCCTCTTGGGTTCTAACCTGTTGCGT (site AGGTCCTCTAT)”, the “recombinant barcode read abundance (log10)” value rises from 0.73 to 1.71.

First: AGGTCTGCTTGGGTTCTAACCTGTTGCCT (site AGGTATGCTAG)
Second: AGGTCTGCTTGGGTTCTAACCTGTTGCCT (site AGGTCTGCTAG)
The “recombinant barcode read abundance (log10)” value of the first is lower: 0.321 for the first, 0.58 for the second.

“AGGTCTGCTTGGGTTCTAACCTGTTGCCT (site AGGTGTGCTAG)” and “AGGTCTGCTTGGGTTCTAACCTGTTGCCT (site AGGTTTGCTAG)” are within 0.2 log units of each other in “recombinant barcode read abundance (log10)” value: 0.12 for the first, 0.0282 for the second.

“AGGTGTGCTTGGGTTCTAACCTGTTGCCT (site AGGTATGCTAG)” and “AGGTGTGCTTGGGTTCTAACCTGTTGCCT (site AGGTCTGCTAG)” are within 0.2 log units of each other in “recombinant barcode read abundance (log10)” value: 0.289 for the first, 0.123 for the second.

First: AGGTGTGCTTGGGTTCTAACCTGTTGCCT (site AGGTGTGCTAG)
Second: AGGTGTGCTTGGGTTCTAACCTGTTGCCT (site AGGTTTGCTAG)
The “recombinant barcode read abundance (log10)” value of the first is higher: 1.19 for the first, 0.502 for the second.

“AGGTTCCCTTGGGTTCTAACCTGTTGCTA (site AGGTTCCCTAA)” and “AGGTTCCCTTGGGTTCTAACCTGTTGCTA (site AGGTTCCCTCA)” are within 0.2 log units of each other in “recombinant barcode read abundance (log10)” value: 0.0211 for the first, 0.0107 for the second.

First: AGGTTCCCTTGGGTTCTAACCTGTTGCTA (site AGGTTCCCTGA)
Second: AGGTTCCCTTGGGTTCTAACCTGTTGCTA (site AGGTTCCCTTA)
The “recombinant barcode read abundance (log10)” value of the first is lower: 0.0194 for the first, 1.32 for the second.

Compared with “AGGTTCCCTTGGGTTCTAACCTGTTGCTT (site AGGTTCCCTAA)”, “AGGTTCCCTTGGGTTCTAACCTGTTGCTT (site AGGTTCCCTCA)” is lower in “recombinant barcode read abundance (log10)” value: 1.41 for the first, 0.0899 for the second.

Going from “AGGTTCCCTTGGGTTCTAACCTGTTGCTT (site AGGTTCCCTGA)” to “AGGTTCCCTTGGGTTCTAACCTGTTGCTT (site AGGTTCCCTTA)”, the “recombinant barcode read abundance (log10)” value falls from 0.621 to 0.183.

Compared with “AGGTTTGCTTGGGTTCTAACCTGTTGCCT (site AGGTATGCTAG)”, “AGGTTTGCTTGGGTTCTAACCTGTTGCCT (site AGGTCTGCTAG)” is higher in “recombinant barcode read abundance (log10)” value: 0.168 for the first, 0.471 for the second.

“AGGTTTGCTTGGGTTCTAACCTGTTGCCT (site AGGTGTGCTAG)” and “AGGTTTGCTTGGGTTCTAACCTGTTGCCT (site AGGTTTGCTAG)” are within 0.2 log units of each other in “recombinant barcode read abundance (log10)” value: 0.018 for the first, 0.0479 for the second.

“AGGTTTGCTTGGGTTCTAACCTGTTGCTT (site AGGTTTGCTAA)” and “AGGTTTGCTTGGGTTCTAACCTGTTGCTT (site GTCACAACTCG)” are within 0.2 log units of each other in “recombinant barcode read abundance (log10)” value: 0.00886 for the first, 0.101 for the second.

“AGTACGCCTTGGGTTCTAACCTGTTGCCT (site AGTACGCCTAG)” and “AGTACGCCTTGGGTTCTAACCTGTTGCCT (site TGAACGCCTAG)” are within 0.2 log units of each other in “recombinant barcode read abundance (log10)” value: 0.0474 for the first, 0.07 for the second.

Compared with “AGTAGAACTTGGGTTCTAACCTGTTGCCT (site AGTAGAACTAG)”, “AGTAGAACTTGGGTTCTAACCTGTTGCCT (site CGTAGAGCTAG)” is lower in “recombinant barcode read abundance (log10)” value: 0.387 for the first, 0.172 for the second.

Compared with “AGTAGGACTTGGGTTCTAACCTGTTGCCT (site AGTAGGACTAG)”, “AGTAGGACTTGGGTTCTAACCTGTTGCCT (site CGTAGGACTAG)” is lower in “recombinant barcode read abundance (log10)” value: 0.242 for the first, 0 for the second.

“AGTAGGACTTGGGTTCTAACCTGTTGCCT (site GGTAGGACTAG)” and “AGTAGGACTTGGGTTCTAACCTGTTGCCT (site TGTAGGACTAG)” are within 0.2 log units of each other in “recombinant barcode read abundance (log10)” value: 0.0674 for the first, 0.213 for the second.

Going from “AGTAGTTCTTGGGTTCTAACCTGTTGCAG (site AGTAGTTCTCT)” to “AGTAGTTCTTGGGTTCTAACCTGTTGCAG (site CTCGTAGCTAG)”, the “recombinant barcode read abundance (log10)” value falls from 0.683 to 0.104.

“AGTCAAACTTGGGTTCTAACCTGTTGCCT (site AGTCAAACTAG)” and “AGTCAAACTTGGGTTCTAACCTGTTGCCT (site AGTCATACTAG)” are within 0.2 log units of each other in “recombinant barcode read abundance (log10)” value: 0.157 for the first, 0.141 for the second.

First: AGTCACACTTGGGTTCTAACCTGTTGCTA (site AGTCACACTCA)
Second: AGTCACACTTGGGTTCTAACCTGTTGCTA (site AGTCACACTTA)
The “recombinant barcode read abundance (log10)” value of the first is lower: 0.179 for the first, 1.48 for the second.

Compared with “AGTCAGTCTTGGGTTCTAACCTGTTGCGT (site AGTCAGTCTAC)”, “AGTCAGTCTTGGGTTCTAACCTGTTGCGT (site AGTCATTCTAT)” is lower in “recombinant barcode read abundance (log10)” value: 2.33 for the first, 0.0526 for the second.

Going from “AGTCATACTTGGGTTCTAACCTGTTGCCT (site AGTCAAACTAG)” to “AGTCATACTTGGGTTCTAACCTGTTGCCT (site AGTCATACTAG)”, the “recombinant barcode read abundance (log10)” value rises from 0 to 0.232.

First: AGTCATCCTTGGGTTCTAACCTGTTGCCT (site AGTCATACTAT)
Second: AGTCATCCTTGGGTTCTAACCTGTTGCCT (site AGTCATCCTAG)
The “recombinant barcode read abundance (log10)” value of the first is lower: 0.0998 for the first, 0.667 for the second.

Compared with “AGTCCTGCTTGGGTTCTAACCTGTTGCCT (site AGTCCTGCTAG)”, “AGTCCTGCTTGGGTTCTAACCTGTTGCCT (site CGTCCTGCTAG)” is lower in “recombinant barcode read abundance (log10)” value: 0.722 for the first, 0.072 for the second.

“AGTCCTGCTTGGGTTCTAACCTGTTGCCT (site GGTCCTGCTAG)” and “AGTCCTGCTTGGGTTCTAACCTGTTGCCT (site TGTCCTGCTAG)” are within 0.2 log units of each other in “recombinant barcode read abundance (log10)” value: 0.154 for the first, 0.0318 for the second.

Compared with “AGTCGATCTTGGGTTCTAACCTGTTGCTT (site ACTCGATCTAG)”, “AGTCGATCTTGGGTTCTAACCTGTTGCTT (site AGTCGATCTAA)” is higher in “recombinant barcode read abundance (log10)” value: 0.0101 for the first, 0.496 for the second.

“AGTCGGCCTTGGGTTCTAACCTGTTGCCT (site AGTCGGCCTAG)” and “AGTCGGCCTTGGGTTCTAACCTGTTGCCT (site ATTCGGCCTAG)” are within 0.2 log units of each other in “recombinant barcode read abundance (log10)” value: 0.129 for the first, 0.228 for the second.

Going from “AGTCGGTCTTGGGTTCTAACCTGTTGCAT (site AGTCGGTCTAT)” to “AGTCGGTCTTGGGTTCTAACCTGTTGCAT (site GGTCCGTCTAT)”, the “recombinant barcode read abundance (log10)” value falls from 0.813 to 0.0825.

Compared with “AGTCTACCTTGGGTTCTAACCTGTTGCTT (site AGTCTACCTAA)”, “AGTCTACCTTGGGTTCTAACCTGTTGCTT (site CGTCTACCTAA)” is lower in “recombinant barcode read abundance (log10)” value: 0.331 for the first, 0.0324 for the second.

First: AGTCTAGCTTGGGTTCTAACCTGTTGCCT (site AGTCTAGCTAG)
Second: AGTCTAGCTTGGGTTCTAACCTGTTGCCT (site AGTCTAGCTCG)
The “recombinant barcode read abundance (log10)” value of the first is lower: 0.0325 for the first, 0.692 for the second.
